In one test the target is T1, MDR1-ATPase (Homo sapiens, UniProt P08183).
T1 construct: made in house; host or cells: Sf9 insect cells (baculovirus); isolated membranes
The test can be described thus: MDR1 ATPase assay (substrate potential for MDR1). Type of test: biochemical. Particulars: isolated Sf9 cell membranes; for Ki: half-maximum inhibition of MDR1-ATPase stimulated by 30-40 micromolar verapamil. The source says: Method for Measuring Substrate Potential for MDR1 (MDR1 ATPase assay)
Recombinant baculovirus carrying the human MDR1 gene was generated and Sf9 cells infected with virus. The virus-infected cells were harvested and their membranes isolated. MDR1-ATPase activity of the isolated Sf9 cell membranes was estimated by measuring inorganic phosphate liberation as previously described (B. Sarkadi, J. Biol. Chem., 1992, 267:4854-4858). The differences between the ATPase activities measured in the absence and presence of 100 micromolar vanadate were determined as activity specific to MDR1. MDR modulator concentrations causing half-maximum activation (Ka) or half-maximum inhibition of the MDR1-ATPase stimulated by 30-40 micromolar verapamil (Ki) were determined.

The next test deals with NIH-MDR1-G185 cells. Briefly: Fluorescent substrate accumulation assay (BODIPY-FL Taxol). Format: cell-based. Particulars: BODIPY-FL Taxol 500 nM, modulator 10 micromolar, 40 min at 37° C.; fluorescence with modulator / without modulator. As to the method: Fluorescent Substrate Accumulation Assay
NIH-MDR1-G185 cells (obtained from M. Gottesman, NIH) were harvested and resuspended in RPMI-1640 containing L-glutamine, 10% Cosmic Calf Serum and penicillin-streptomycin. Cell suspension aliquots of 175 microliters (1×10^5 cells) were added to individual wells of a 96 well microtiter plate and preincubated for 15 min at 37° C. with 20 microliters MDR modulator diluted in cell culture media to give a final concentration of 10 micromolar. Control wells received no modulating agent. BODIPY-FL Taxol (Molecular Probes, Eugene, Oreg.) was added to each well in 10 microliter aliquots to give a final concentration of 500 nM and cells were incubated for 40 min at 37° C. Cells were centrifuged at 100×g for 5 min at 4° C. and the cell pellet washed with 200 microliters cold PBS to remove fluorescent medium from wells. Cells were centrifuged once more, media removed, and cells resuspended in 200 microliters cold PBS. Fluorescence accumulation was measured in a fluorescence plate reader fitted with an excitation filter of 485 nm and an emission filter of 538 nm. BODIPY-FL taxol accumulation in the cells was calculated as follows: Accumulation Index=(fluorescence in NIH-MDR1-G185 cells in the presence of modulator)/(fluorescence in NIH-MDR1-G185 cells in absence of modulator)

The mark [1] stands for this setting: concentration causing half-maximum activation of MDR1-ATPase.

T1 sequence (P08183 whole entry): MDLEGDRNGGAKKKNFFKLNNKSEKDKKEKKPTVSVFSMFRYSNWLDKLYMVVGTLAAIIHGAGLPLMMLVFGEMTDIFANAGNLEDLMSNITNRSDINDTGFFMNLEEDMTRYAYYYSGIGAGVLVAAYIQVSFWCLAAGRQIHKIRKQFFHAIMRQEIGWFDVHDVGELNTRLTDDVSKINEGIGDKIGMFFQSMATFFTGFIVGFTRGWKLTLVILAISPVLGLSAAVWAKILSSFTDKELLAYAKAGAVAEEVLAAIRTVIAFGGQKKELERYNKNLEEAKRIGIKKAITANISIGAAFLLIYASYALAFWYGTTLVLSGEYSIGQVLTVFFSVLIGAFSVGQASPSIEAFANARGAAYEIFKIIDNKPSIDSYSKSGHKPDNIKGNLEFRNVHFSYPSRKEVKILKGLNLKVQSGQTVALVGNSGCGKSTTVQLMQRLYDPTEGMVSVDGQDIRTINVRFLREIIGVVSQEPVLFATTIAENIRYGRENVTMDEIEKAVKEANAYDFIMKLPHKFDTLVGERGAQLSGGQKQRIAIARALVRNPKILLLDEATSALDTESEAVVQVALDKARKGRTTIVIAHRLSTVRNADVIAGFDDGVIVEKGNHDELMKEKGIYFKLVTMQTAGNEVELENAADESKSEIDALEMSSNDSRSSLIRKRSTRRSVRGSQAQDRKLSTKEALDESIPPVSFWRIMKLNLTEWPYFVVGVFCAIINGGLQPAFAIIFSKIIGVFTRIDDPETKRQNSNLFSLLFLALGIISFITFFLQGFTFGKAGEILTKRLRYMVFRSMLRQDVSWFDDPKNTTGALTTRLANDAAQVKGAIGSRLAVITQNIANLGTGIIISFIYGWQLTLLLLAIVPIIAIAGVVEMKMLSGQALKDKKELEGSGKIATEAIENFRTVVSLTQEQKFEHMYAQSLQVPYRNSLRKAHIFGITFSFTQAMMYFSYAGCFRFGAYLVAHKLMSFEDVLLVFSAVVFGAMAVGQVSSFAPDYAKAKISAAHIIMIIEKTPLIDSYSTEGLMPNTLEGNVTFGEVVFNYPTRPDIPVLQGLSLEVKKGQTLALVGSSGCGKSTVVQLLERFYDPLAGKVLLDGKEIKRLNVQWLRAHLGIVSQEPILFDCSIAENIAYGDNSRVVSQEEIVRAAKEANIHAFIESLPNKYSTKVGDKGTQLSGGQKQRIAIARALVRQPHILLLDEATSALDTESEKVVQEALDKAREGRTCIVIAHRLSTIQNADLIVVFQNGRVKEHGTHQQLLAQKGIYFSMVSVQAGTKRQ

`O=C(NC(CCCc1ccccc1)CCCc1ccccc1)C1CCCN(C[C@@H](O)COc2cccc3ncccc23)C1` (stereo partly shown) [Example 14]: the “Substrate Potential Ka(MDR1-ATPase)” value at MDR1-ATPase (setting [1]) is on record as “no activation”. Also, affinity at MDR1-ATPase was put at a Ki of 300 nM.
Turning to `CC1(C(=O)NC(CCCc2ccccc2)CCCc2ccccc2)CCN(C[C@@H](O)COc2cccc3ncccc23)CC1` [Example 50, (R)-1-[2-hydroxy-3-(quinolin-5-yloxy)-propyl]-methylpiperidine-4-carboxylic acid [4-phenyl-1-(3-phenyl-propyl)-butyl]-amide], the “Accumulation Index” value in the test with NIH-MDR1-G185 cells amounted to 10.
`O=C(NC1CCN(C[C@H](O)COc2cccc3ncccc23)CC1)C(CCCc1ccccc1)CCCc1ccccc1` (stereo in doubt) [Example 25, 5-phenyl-2-(3-phenyl-propyl)-pentanoic acid {1-[2-hydroxy-3-(quinolin-5-yloxy)-propyl]-piperidin-4-yl}-amide]: on MDR1-ATPase (concentration causing half-maximum activation of MDR1-ATPase, read-out: Substrate Potential Ka(MDR1-ATPase)), the EC50 turned out to be 5 nM. At MDR1-ATPase, the Ki – broadly, a measure of affinity in units of concentration, obtained from inhibition or displacement – is 10 nM.
Consider `COc1cc(C(=O)C(=O)N2CCCC(C(=O)NC(CCCc3ccccc3)CCCc3ccccc3)C2)cc(OC)c1OC` (stereo not shown) [Example 26, 1-(3,4,5-trimethoxyglyoxyl)-piperidine-3-carboxylic acid [4-phenyl-1-(3-phenyl-propyl)-butyl]-amide], for which the “Substrate Potential Ka(MDR1-ATPase)” value at MDR1-ATPase (setting [1]) is given as “no activation”. Moreover, the affinity at MDR1-ATPase, expressed as Ki, was 500 nM.
On to “(R)-1-[2-hydroxy-3-(quinolin-5-yloxy)-propyl]-piperidine-4-carboxylic acid [4-(3-pyridyl-1-(3-pyridyl-propyl)-butyl]-amide [Example 53]”, for which, in the test with NIH-MDR1-G185 cells, the “Accumulation Index” value is 8.
For `O=C(C1CCN(C[C@@H](O)COc2cccc3ncccc23)CC1)N(Cc1ccccc1)Cc1ccccc1` [Example 36, (R)-1-[2-hydroxy-3-(quinolin-5-yloxy)-propyl]-piperidine-4-carboxylic acid dibenzyl amide], the “Substrate Potential Ka(MDR1-ATPase)” value on MDR1-ATPase (setting [1]) is “no activation”. The molecule further gave a Ki on MDR1-ATPase of 1000 nM.
For `COc1cc(OC[C@H](O)CN2CCCC(C(=O)NC(CCCc3ccccc3)CCCc3ccccc3)C2)cc(OC)c1OC` (stereo partly shown) [Example 15] the same measures were “weak activation” and above 50000 nM.
For `O=C(NCCCCc1ccccc1)[C@H]1CN(C[C@@H](O)COc2cccc3ncccc23)CC[C@H]1C(=O)NCCCCc1ccccc1` (stereo in doubt) [Example 11, cis-(R)-1-[2-hydroxy-3-(quinolin-5-yloxy)-propyl]-piperidine-3,4-dicarboxylic acid bis-[(4-phenyl-butyl)-amide]], in that order: “no activation” and 20 nM.
For `O=C(NC(CCCc1ccccc1)CCCc1ccccc1)C1CCN(C[C@@H](O)COc2cccc3ncccc23)CC1` [Example 5, (R)-1-[2-hydroxy-3-(quinolin-5-yloxy)-propyl]-piperidine-4-carboxylic acid [4-phenyl-1-(3-phenyl-propyl)-butyl]-amide], in that order: “no activation” and 300 nM.

Source of the values: patent US7476680B2, “Substituted heterocyclic compounds for treating multidrug resistance” (H. Lee Moffitt Cancer Center & Research Institute, Inc., priority 2000, dated 2009).
